A short description of experiment [1]: Calcium concentration in plasma of anesthetized rats. The class given is in vivo. The following applies: rat, 16 nmol/kg from jugular vein. The procedure: (§1) CRSP corresponding to an amount of 16 nmol/kg dissolved in a physiological saline solution was administered at a time within a short period from jugular vein of rat under an anesthetized condition and calcium concentration in the plasma and blood pressure were measured. The results are shown in FIG. 13 (changes in calcium concentration in blood by administration of CRSP) and FIG. 14 (changes in blood pressure by administration of CRSP).
(§2) CRSP corresponding to the amount of 16 nmol/kg dissolved in a physiological saline solution was administered at a time within short period from […] of rat under an anesthetized condition.

Experiment [2] concerns the target T1, Pig calcitonin receptor (CTR) (Sus scrofa, UniProt P25117).
T1 construct: expressed in transfected cells; host or cells: COS-7 (given as rhesus monkey renal cells), vector pcDNA 3.1
T1 sequence (P25117 30-498): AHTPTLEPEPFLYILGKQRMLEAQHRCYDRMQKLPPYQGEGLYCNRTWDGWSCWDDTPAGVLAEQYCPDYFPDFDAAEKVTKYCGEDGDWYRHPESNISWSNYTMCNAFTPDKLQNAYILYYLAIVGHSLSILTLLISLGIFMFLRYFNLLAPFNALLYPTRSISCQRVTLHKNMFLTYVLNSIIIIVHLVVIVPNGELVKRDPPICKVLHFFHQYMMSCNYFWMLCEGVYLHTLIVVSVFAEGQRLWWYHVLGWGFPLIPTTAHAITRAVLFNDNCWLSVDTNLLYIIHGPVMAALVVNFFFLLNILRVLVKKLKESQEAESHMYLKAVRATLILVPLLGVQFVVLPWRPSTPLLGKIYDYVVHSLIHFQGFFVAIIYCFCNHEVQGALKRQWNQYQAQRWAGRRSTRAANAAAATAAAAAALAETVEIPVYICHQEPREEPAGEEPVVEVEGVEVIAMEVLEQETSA
As to the kind of experiment: cAMP production in COS-7 cells expressing pig calcitonin receptor. The class given is cell-based. The procedure:
(§3) Pig calcitonin receptor (CTR) was introduced into a mammalian expression vector pcDNA 3.1, expressed in rhesus monkey renal cells (COS-7) and production amount of cAMP by stimulation of CRSP was measured by radioimmunoassay. Similarly, CTR was expressed in opossum renal cells (OK cells) and production amount of cAMP by stimulation of CRSP was measured by radioimmunoassay while incorporation of sodium ion was measured by measuring the incorporation of sodium chloride having radioactivity (^22Na) by a gamma-counter.
Pig calcitonin receptor (CTR) was introduced into mammalian expression vector pcDNA 3.1 and then expressed in rhesus monkey renal cells (COS-7) whereupon production amount of cAMP by CRSP stimulation was measured by radioimmunoassay.
Pig calcitonin receptor (CTR) was introduced into a mammalian expression vector pcDNA 3.1 and expressed in rhesus monkey renal cells (COS-7) and production amount of cAMP by CRSP stimulation was measured by radioimmunoassay.
Pig calcitonin receptor (CTR) was introduced into a mammalian expression vector pcDNA 3.1, then expressed in rhesus monkey renal cells (COS-7) and production amount of cAMP by CRSP or CRSP-Gly stimulation was measured-by radioimmunoassay.
Background: Changes in cAMP serve as a functional read-out for many G protein-coupled receptors.

Experiment [3] deals with LLC-PK1 cells. As to the kind of experiment: cAMP production in LLC-PK1 cells (radioimmunoassay). The note with it: ratio of ED50. The class given is cell-based, pig. The procedure: CRSP dissolved in DMEM was added to a medium for LLC-PK1 cells and amount of cAMP secreted therefrom was quantified by means of radioimmunoassay using a cAMP-specific antibody.
LLC-PK1 cells were incubated in a culture medium (a Dulbecco-modified Eagle medium (DMEM) containing 10% of fetal calf serum (FCS)), CRSP dissolved in DMEM containing 0.05% of bovine serum albumin was substituted for a culture medium for the cells after two days, incubation was conducted for 30 minutes, the medium was recovered and amount of the secreted cAMP was quantified by radioimmunoassay using a cAMP-specific antibody.

For experiment [4], the system named is LLC-PK1 cells. As to the kind of experiment: Suppression of cell proliferation (125I-DU incorporation, cell count). The class given is cell-based, pig. The following applies: 125I-DU incorporation and cell count. The procedure: A solution of each peptide in DMEM in each concentration was added to LLC-PK1 cells, then DMEM (containing 0.1% BSA) which contained bromodeoxyuridine labeled with ^125I (^125I-DU) was added to each well and, after 5 hours, radioactivity incorporated into the nuclei was measured by a gamma-counter to measure the DNA amount synthesized as a result of cell proliferation.
With regard to the number of proliferated cells, each solution of CRSP in DMEM in various concentrations was added to LLC-PK1 cells of 10,000 cells/well, incubation was conducted, the cells on the incubation dish was taken out by a trypsin-EDTA solution and cell numbers were counted using a counting plate.
LLC-PK1 cells were incubated for two days in a DMEM (containing 10% of FCS) on a 24-well collagen plate, once washed with a DMEM and substituted with a DMEM (containing 10% of FCS) containing 0 and 10^−12 to 10^−6 M of CRSP followed by incubating. After 2 hours, a DMEM (containing 0.1% of BSA) containing ^125I-labeled bromodeoxyuridine was added to each well and, after 5 hours, radioactivity incorporated into the nuclei was measured by a gamma-counter whereupon the amount of DNA synthesized as a result of cell proliferation was measured.
Similarly, LLC-PK1 cells of 10,000 cells/well were sown on a 24-well collagen plate and incubated with a DMEM (containing 10% of FCS) for 24 hours. […]

In experiment [5] the target is T1, Pig calcitonin receptor (CTR). The experiment in a line: Incorporation of sodium ion (22Na) in OK cells expressing CTR. The note with it: CTR expressed in OK cells. The class given is cell-based. The procedure:
as §3, with “gamma-counter. The results are shown in FIG. 10 (changes in cAMP productivity by CRSP stimulation in cells (COS-7) where calcitonin receptor was expressed in a genetic engineering manner), FIG. 11 (changes in cAMP productivity in opossum renal epithelial cells where pig calcitonin receptor (CTR) was expressed) and FIG. 12 (changes in incorporation of sodium ion in opossum renal epithelial cells where pig calcitonin receptor (CTR) was expressed).” for “gamma-counter.”
Similarly, CTR was expressed in opossum renal cells (OK cells) and production amount of cAMP by CRSP stimulation was measured by radioimmunoassay while incorporation of sodium ion was measured by incorporation of radioactive sodium chloride (^22Na) using a gamma-counter.

Experiment [6] in a line: Blood pressure of anesthetized rats. The class given is in vivo. The following applies: rat, 16 nmol/kg from jugular vein. Here is the method:
as §1, §2

SMILES strings stand for the structures. Where a SMILES comes first, the peptide text is derived from it. Bridges are numbered along the chain shown (N, C = ends).

On to `CSCC[C@H](NC(=O)[C@H](CCCCN)NC(=O)[C@@H](NC(=O)[C@@H]1CCCN1C(=O)[C@H](CC(C)C)NC(=O)[C@H](CC(C)C)NC(=O)[C@H](CC(N)=O)NC(=O)[C@H](CO)NC(=O)[C@H](CCCNC(=N)N)NC(=O)[C@@H](NC(=O)[C@H](CCSC)NC(=O)[C@H](CO)NC(=O)CNC(=O)[C@H](CO)NC(=O)[C@H](CCCNC(=N)N)NC(=O)[C@H](CO)NC(=O)[C@H](CC(C)C)NC(=O)[C@H](CC(C)C)NC(=O)CNC(=O)[C@@H](NC(=O)[C@H](CC(C)C)NC(=O)[C@H](CCCNC(=N)N)NC(=O)[C@H](Cc1c[nH]cn1)NC(=O)[C@@H](NC(=O)[C@H](CCSC)NC(=O)[C@@H]1CSSC[C@H](NC(=O)[C@@H](N)CO)C(=O)N[C@@H](CC(N)=O)C(=O)N[C@@H]([C@@H](C)O)C(=O)N[C@@H](C)C(=O)N[C@@H]([C@@H](C)O)C(=O)N1)[C@@H](C)O)C(C)C)C(C)C)[C@@H](C)O)C(=O)NCC(=O)N[C@@H](Cc1ccccc1)C(=O)N[C@@H](CCCCN)C(=O)N[C@H](C(=O)N[C@@H](Cc1ccccc1)C(=O)NCC(N)=O)C(C)C` [CRSP] (H-SCNTATCMTHRLVGLLSRSGSMVRSNLLPTKMGFKVFG-NH2; disulfide 2-7), for which the “calcium concentration in plasma” value in experiment [1] is recorded as “transiently lowered”. The “cAMP productivity, CRSP compared with CRSP-Gly” value in experiment [2] (CTR expressed in COS-7) was “nearly the same cAMP productivity”. Moreover, the “activity stronger than pig calcitonin” value in experiment [2] (CTR expressed in COS-7, ratio of ED50) was “about 350 fold”. Also, in experiment [2] (CTR expressed in COS-7, read-out: ED50, increase of intracellular adenylyl cyclase activity (cAMP production)), the EC50 is about 0.2 nM. Besides, in the experiment on LLC-PK1 cells [3], the “activity stronger than pig CGRP” value is listed as “about 40 fold” and the “activity stronger than pig calcitonin” value is “about 6 fold”. The “growth of LLC-PK1 cells” value with LLC-PK1 cells [4] is reported as “suppressing the growth of LLC-PK1 cells”. In experiment [5], the “amyloride-sensitive Na/H co-transporter” value is given as “activated” and the “incorporation of sodium into cells” value was “promoted”. For the same compound, in experiment [6], the blood pressure result was “no apparent change”.

These data come from patent US20050256302A1, “Novel peptides having camp producing activity” (Japan Science and Technology Agency, priority 2002, published 2005).
